This passage reports inhibition results from patent US20260345595A1, “NOVEL FLUORENE DERIVATIVE COMPOUND AND USE THEREOF” (JD BIOSCIENCE INC., priority 2022, published 2026).

The term inhibition denotes the change of the read-out against control, counted positive when it falls.

This assay relates to PDHE1α S293. Nature of the assay: In vitro PDH S293 phosphorylation inhibition, Western blot in HEK293 cells. Type of assay: cell-based. To be noted: Homo sapiens, 5 hours. On the procedure:
HEK293 cells, which are human embryonic kidney cells, were seeded at a density of 2×10^6 in a 60 mm dish, and cultured for 24 hours. After replacing the medium with a medium comprising 0.5% FBS, the compounds prepared according to Examples 1 to 54 were treated at various concentrations. 5 hours later, the cells were scraped off and collected into a 15 ml conical tube and centrifuged at 1500 rpm for 10 minutes. The supernatant was discarded, the resultant was washed with 1×PBS, and transferred to a 1.5 mL e-tube, followed by centrifugation at 10,000 rpm for 5 minutes. The supernatant was discarded again, a lysis buffer was added, and the cells were lysed on ice for 30 minutes. The cells were vortexed every 10 minutes to completely lyse, and centrifuged again at 10,000 rpm for 15 minutes at 4 °C., and the supernatant was collected. The protein in the supernatant was quantified using BCA technique, and the sample buffer was added to 20 μg of protein and allowed to react at 70 °C. for 5 minutes. The expression of PDHE1α S232, S293, S300, and total PDHE1α proteins was detected by Western blot, and the resulting PDH S293 phosphorylation inhibition is shown in Table 6.
(In general: In western blotting, separated proteins are transferred to a membrane and probed.)

Consider `COc1cc(-c2cnn(C(C)C(=O)NNc3ncc(C(F)(F)F)cc3Cl)c2)c2c(c1)C(O)(C(F)(F)F)c1ccccc1-2` (centres unmarked) [Compound 33, N′-(3-chloro-5-(trifluoromethyl)pyridin-2-yl)-2-(4-(9-hydroxy-2-methoxy-9-(trifluoromethyl)-9H-fluoren-4-yl)-1H-pyrazol-1-yl)propanehydrazide], for which the inhibition at 1 µM is no less than 50%. Under `CC(C(=O)NNc1ncc(C(F)(F)F)cc1Cl)n1cc(-c2cc(F)cc3c2-c2ccccc2C3(O)C(F)(F)F)cn1` (centres unmarked) [Compound 32, N′-(3-chloro-5-(trifluoromethyl)pyridin-2-yl)-2-(4-(2-fluoro-9-hydroxy-9-(trifluoromethyl)-9H-fluoren-4-yl)-1H-pyrazol-1-yl)propanehydrazide] stands no less than 50%.
